Experimental findings from patent US20240424112A1, “TETRAHYDROISOQUINOLINE COMPOUNDS THAT ARE KEAP1 BINDERS” (C4X Discovery Limited, priority 2021, published 2024) are described below.

Assay [1] concerns the target T1, BRD4 (Homo sapiens, UniProt O60885).
T1 construct: endogenous in cells; host or cells: MDA-MB-468
The assay is described as follows: BRD4 degradation assay (Western blot, MDA-MB-468 cells), isoform not given. The class given is cell-based. The procedure: (§1) BRD4 Degradation Assay Protocol Summary
MDA-MB-468 cells were cultured routinely in DMEM supplemented with 10% heat inactivated FBS and 1% Penicillin-Streptomycin (Thermofisher Scientific) at 37° C. 5% CO2. Cells were seeded in 6-well plates at 4*10^5 cells per well and left to adhere overnight. Example compounds were solubilised in DMSO to make 10 mM stocks followed by serial dilutions in DMSO to 200× final concentration. These were further diluted in culture media to give 20× treatment stocks before addition to cells to a 1× final concentration. Cells were then incubated at 37° C. 5% CO2 for 24 or 48 hours after which cells were lysed in RIPA buffer supplemented with cOmplete Mini Protease Inhibitor Cocktail and PhosSTOP™ (Roche). Lysates were clarified by centrifugation at 13,000 RPM for 10 minutes and the protein concentration of the resulting supernatants determined by BCA assay (ThermoFisher Scientific) as per manufacturer's instructions. Lysates were denatured and reduced in NuPAGE LDS sample buffer and sample reducing agent before 10 μg was loaded onto NuPAGE […] Tris-Acetate Mini Protein Gels (ThermoFisher Scientific). […] Percentage degradation of BRD4 relative to the DMSO treated negative control was calculated as: =100−(signal of interest/signal of control sample*100). […]
A general note: Immunoblotting shows a protein as a band on a membrane.

Assay [2] concerns the target T2, BRD4 long isoform (Homo sapiens, UniProt O60885).
T2 construct: endogenous in cells; host or cells: MDA-MB-468
The assay can be described thus: BRD4 degradation assay (Western blot, MDA-MB-468 cells), long isoform. Conditions: MDA-MB-468, n = 2. The class given is cell-based. The procedure:
as §1
(§2) MDA-MB-468 cells were cultured routinely in DMEM supplemented with 10% heat inactivated FBS and 1% Penicillin-Streptomycin (Thermofisher Scientific) at 37° C. 5% CO2. Cells were seeded in 6-well plates at 4*10^5 cells per well and left to adhere overnight. Example compounds were solubilised in DMSO to make 10 mM stocks followed by serial dilutions in DMSO to 200× final concentration. These were further diluted in culture media to give 20× treatment stocks before addition to cells to a 1× final concentration. Cells were then incubated at 37° C. 5% CO2 for 24 or 48 hours after which cells were lysed in RIPA buffer supplemented with cOmplete Mini Protease Inhibitor Cocktail and PhosSTOP™ (Roche). Lysates were clarified by centrifugation at 13,000 RPM for 10 minutes and the protein concentration of the resulting supernatants determined by BCA assay (ThermoFisher Scientific) as per manufacturer's instructions. Lysates were denatured and reduced in NuPAGE LDS sample buffer and sample reducing agent before 10 μg was loaded onto NuPAGE […] Tris-Acetate Mini Protein Gels (ThermoFisher Scientific). Protein was transferred to nitrocellulose membranes using a Trans-Blot Turbo Transfer System (Bio-Rad) before blocking for 1 hour in Intercept (TBS) Blocking Buffer (Li-Cor). Membranes were then incubated overnight with BRD4 (ab128874; Abcam) and α-tubulin (T6074; Sigma-Aldrich) antibodies diluted 1:2000 and 1:16,000 respectively in Tris-buffered saline 0.05% Tween 20 (TBS-T). The following day, membranes were washed with TBS-T before addition of anti-rabbit IRDye 800 CW and anti-mouse IRDye 680LT secondary antibodies (LiCor) (diluted 1:10,000 in TBS-T) for one hour. Membranes were then washed with TBS-T before imaging using a LICOR Odyssey Infrared Imaging System with Image Studio Ver 5.2 software (LiCor). Densitometry analysis was carried out in the LiCor image studio software where BRD4 signal was normalised to α-tubulin signal. Percentage degradation of BRD4 relative to the DMSO treated negative control was calculated as: =100−(signal of interest/signal of control sample*100). BRD4 degradation by dBET1 was used as positive control for each plate. Data obtained for the percentage degradation of BRD4 upon treatment with the Example compounds 1-6 and Comparative Example compounds 1-3 at 24 hour incubation are shown in Table 2 and with 48 hour incubation are shown in Table 3.

For assay [3], the system named is NRF2 mediated gene NAD(P)H:quinone acceptor oxidoreductase 1 (NQO1) mRNA in BEAS-2B cells. The assay can be described thus: Beas2B NQO1 mRNA cell based assay. Conditions: Homo sapiens, 24 h, vs vehicle (0.1% DMSO), read-out: EC50 (increase in NQO1 mRNA). The method, then:
Beas2B NQO1 mRNA Cell Based Assay
The up-regulation of the NRF2 mediated gene NAD(P)H:quinone acceptor oxidoreductase 1 (NQO1) was measured using the following assay method: BEAS-2B cells (ATCC CRL-9609) were plated in 96-well clear plates at 20,000 cells/well in 75 μL of cell culture media and incubated overnight (37° C., 5% CO2). On day 2, 25 μL of compound or controls were added to the cells for 24 h. On day 3, the medium was aspirated from the plate and the Cells-to-CT™ 1-Step TaqMan® Kit (Ambion A25603) was used to perform expression analysis directly from cultured cells without RNA purification according to the manufacturer's instructions.
Briefly, cells were washed with ice cold PBS and 22.5 μL of room-temperature DNase/Lysis solution was added to the cells and incubated at room temperature for 5 minutes. To stop the reaction, 2.25 μL of stop solution was added to the cell lysate. The samples were diluted 1:5 using nuclease free water and 2.5 μL transferred into the PCR plate. Real-time PCR was performed using the C-1000 Thermal Cycler (Bio-Rad) using human beta actin as the internal control. The cDNA was amplified with a specific primer for NQO1 using the 1-step RT-PCR master mix (Ambion Cells-to-CT™ 1-Step TaqMan® Kit A25603). The primers/probes sets that were used for amplification of cDNA were obtained from TaqMan Gene Expression Assays (Applied Biosystems). The comparative CT (ΔΔCT) relative quantification method was used to calculate the relative mRNA level of the target gene NQO1 as described in the Applied Biosystems Chemistry Guide. The data are expressed as an increase in target gene mRNA compared to vehicle (0.1% DMSO) control and the EC50 values were determined by fitting the data to a four parameter logistic fit using XLfit or XE Runner within ActivityBase.

The target in assay [4] is T3, BRD4 short isoform (Homo sapiens, UniProt O60885).
T3 construct: endogenous in cells; host or cells: MDA-MB-468
The assay is described as follows: BRD4 degradation assay (Western blot, MDA-MB-468 cells), short isoform. The class given is cell-based. The following applies: MDA-MB-468, n = 2. The procedure:
as §1, §2

The term EC50 denotes the concentration needed to bring the measured effect to its halfway point. Regarding `Cc1sc2c(c1C)C(c1ccc(Cl)cc1)=N[C@@H](CC(=O)NCC(=O)NCCn1nnc(COc3ccc(Cl)c4c3[C@@H](CN3CC5(CC5)CC3=O)N(C(=O)[C@@H]3CCCC[C@]3(C)C(=O)O)CC4)c1C)c1nnc(C)n1-2` [Example 1, (1S,2R)-2-((S)-5-Chloro-8-((1-(2-(2-(2-((S)-4-(4-chlorophenyl)-2,3,9-trimethyl-6H-thieno[3,2-f][1,2,4]triazolo[4,3-a][1,4]diazepin-6-yl)acetamido)acetamido)ethyl)-5-methyl-1H-1,2,3-triazol-4-yl)methoxy)-1-((6-oxo-5-azaspiro[2.4]heptan-5-yl)methyl)-1,2,3,4-tetrahydroisoquinoline-2-carbonyl)-1-methylcyclohexane-1-carboxylic acid], the “degradation of BRD4” value in assay [1] (at 0.01 μM) is “up to 75%”. Besides, the “target protein (BRD4) degradation” value in assay [1] (at ≥0.1 μM) was “almost complete target protein degradation”. Moreover, the “% Mean Degradation of BRD4” value in assay [2] (24 h, 0.01 μM) came to 75%; in assay [2] (24 h, 0.1 μM), 99%; in assay [2] (24 h, 1 μM), 101%; in assay [2] (48 h, 0.01 μM), 74%; in assay [2] (48 h, 0.1 μM) it was 97%; in assay [2] (48 h, 1 μM), 99%. Moreover, the “% Mean Degradation of BRD4” value in assay [4] (24 h, 0.01 μM) was 69%; in assay [4] (24 h, 0.1 μM), 97%; in assay [4] (24 h, 1 μM) it was 96%; in assay [4] (48 h, 0.01 μM), 68%; in assay [4] (48 h, 0.1 μM), 93%; in assay [4] (48 h, 1 μM), 100%. In assay [3], the EC50 is 187 nM.

With `Cc1sc2c(c1C)C(c1ccc(Cl)cc1)=N[C@@H](CC(=O)NCC(=O)NCCOCC(=O)N1CC[C@H](Oc3ccc(Cl)c4c3[C@@H](CN3CC5(CC5)CC3=O)N(C(=O)[C@@H]3CCCC[C@]3(C)C(=O)O)CC4)C1)c1nnc(C)n1-2` [Example 6, (1S,2R)-2-((S)-5-Chloro-8-(((S)-1-(2-(2-(2-(2-((S)-4-(4-chlorophenyl)-2,3,9-trimethyl-6H-thieno[3,2-f][1,2,4]triazolo[4,3-a][1,4]diazepin-6-yl)acetamido)acetamido)ethoxy)acetyl)pyrrolidin-3-yl)oxy)-1-((6-oxo-5-azaspiro[2.4]heptan-5-yl)methyl)-1,2,3,4-tetrahydroisoquinoline-2-carbonyl)-1-methylcyclohexane-1-carboxylic acid], the “% Mean Degradation of BRD4” value is 9% in assay [2] (24 h, 0.1 μM); 52% in assay [2] (24 h, 1 μM); 95% in assay [2] (24 h, 5 μM); −27% in assay [2] (48 h, 0.1 μM); 43% in assay [2] (48 h, 1 μM); 82% in assay [2] (48 h, 5 μM). Also, the “% Mean Degradation of BRD4” value in assay [4] (24 h, 0.1 μM) is 21%; in assay [4] (24 h, 1 μM) it was 60%; in assay [4] (24 h, 5 μM), 95%; in assay [4] (48 h, 0.1 μM) it was 1%; in assay [4] (48 h, 1 μM) it was 44%; in assay [4] (48 h, 5 μM), 81%. In assay [3], the concentration for a half-maximal effect (EC50) was 2490 nM.
